Measurements reported in patent US20030073672A1, “Method for treating allergies using substituted pyrazoles” (priority 2001, published 2003).

How the values were obtained:
[1] = test system: T cell proliferative responses induced by ConA in PBMC; experiment: Ex vivo human T cell-proliferation assay, ConA control; format: cell-based; conditions: PBMC of allergic donors, a pan-T cell mitogen
Text: Reagents. […] Cell culture.

[2] = test system: human T cell proliferative responses to house dust mite extracts (Der p, Der f) in PBMC; experiment: Ex vivo human T cell-proliferation assay, house dust mite extracts; format: cell-based; conditions: seven days; for human T cell proliferative responses to Der f: PBMC from an allergy donor, Der f extract, titrated doses of compound, FIG. 3
Text: This proliferation consisted primarily of allergen-specific CD4 T cells.

[3] = test system: human T cell proliferative responses to ragweed extracts (short, giant) in PBMC; experiment: Ex vivo human T cell-proliferation assay, ragweed extracts; conditions: PBMC of ragweed-allergic donors, short and giant ragweed extracts, FIG. 2B
[4] = test system: invariant chain (Ii) degradation, p10Ii fragment, in PBMC from human blood; experiment: Monitoring cathepsin S inhibition in human blood (p10Ii Western blot); format: cell-based; conditions: incubation for 24 h, SDS-PAGE / Western blot
Description: The effect of in vivo administration of cathepsin S inhibitors, in a clinical trial setting, can be monitored by measuring accumulation of an intermediate degradation product of invariant chain (Ii), i.e. the p10Ii fragment, in blood of dosed subjects. After administration of a cathepsin inhibitor for a certain period of time, for example, between 0.01 and 50 mg/kg/day, to result in a blood concentration of between 1 nM-10 μM, for 16-30 h, blood is drawn and white blood cells are purified, e.g. either by lysis of red blood cells or by a Ficoll-Hypaque gradient centrifugation. Whole cell lysates of WBC are then made and analyzed by either a Western blot assay or an ELISA assay. For the Western blot assay, cell lysates are first resolved on SDS-PAGE gels. After transferring to nitrocellulose membranes, Ii and its intermediate degradation products, including the p10Ii, can be detected using a mouse mAb against Ii, e.g. Pin.1, or rabbit polyclonal antibodies specific for the C-terminus of the p10Ii fragment or against the entire p10Ii fragment. For ELISA assay, a pair of antibodies against Ii, including Pin1.1, and a rabbit polyclonal antibody or a mouse monoclonal antibody specific for p10Ii, can be used. The same assay can also be applied to monitor the effect of cathepsin S inhibitors in vivo in animal studies, for example in monkeys, dogs, pigs, rabbits, guinea pigs, and rodents.

[5] = test system: allergic volunteers; experiment: Monitoring in vivo inhibition of allergenic response (cutaneous reactions); conditions: allergens deposited subcutaneously

SMILES: N#Cc1ccccc1N1CCN(CC(Cn2nc(-c3ccc(I)cc3)c3c2CCN(C(N)=O)C3)OC(N)=O)CC1 (stereo not shown) [Example 11, Carbamic acid 1-[5-carbamoyl-3-(4-iodo-phenyl)-4,5,6,7-tetrahydro-pyrazolo[4,3-c]pyridin-1-ylmethyl]-2-[4-(2-cyano-phenyl)-piperazin-1-yl]-ethyl Ester]
- T cell proliferative responses induced by ConA [1]: but not ConA
- human T cell proliferative responses to Der f [2]: inhibition

SMILES: CS(=O)(=O)N1CCc2c(c(-c3ccc(I)cc3)nn2CC(O)CN2CCN(c3ccccc3C#N)CC2)C1 (stereo not shown) [Example 36, 2-(4-{2-Hydroxy-3-[3-(4-iodo-phenyl)-5-methanesulfonyl-4,5,6,7-tetrahydro-pyrazolo[4,3-c]pyridin-1-yl]-propyl}-piperazin-1-yl)-benzonitrile]
- T cell proliferative responses induced by ConA [1]: but not ConA
- human T cell proliferative responses to Der f [2]: inhibition

SMILES: CC(C)C[C@H](NC(=O)N1CCOCC1)C(=O)N[C@H](/C=C/S(=O)(=O)c1ccccc1)CCc1ccccc1 [LHVS, 4-morpholinecarboxamide, N-[(1S)-3-methyl-1-[[[(1S,2E)-1-(2-phenylethyl)-3-(phenylsulfonyl)-2-propenyl]amino]carbonyl]butyl]-]
- T cell proliferation (3H-thymidine incorporation) induced by ragweed extracts [3]: strongly inhibited
- T cell proliferative responses induced by ConA [1]: not affected
- T cell proliferation (3H-thymidine incorporation) induced by HDM extracts ([2]; PBMC of HDM-allergic donors, Der p or Der f extracts, FIG. 1B): strongly inhibited
- p10Ii fragment accumulation (block in the degradation of Ii) [4]: the p10Ii fragment was seen

SMILES: C[C@]12C=CC(=O)C=C1CC[C@@H]1[C@@H]2C(=O)C[C@@]2(C)[C@H]1CC[C@]2(O)C(=O)CO [Prednisone, prednisone]
- immediate weal and flare response ([5]; 15 min): inhibit both the immediate and the late phase responses
- late phase response (induration) ([5]; 6 h and 24 h): inhibit both the immediate and the late phase responses
